Assay results as given in patent publication US8480620B2, “Coatings with tunable solubility profile for drug-coated balloon” (Abbott Cardiovascular Systems Inc., priority 2009, dated 2013).

Test: Solubility enhancement of zotarolimus with select excipient solutions
Format: physicochemical
Details: Phosphate buffered saline; n = 3
Text: Table 1 provides non-limiting examples of the solubility data for excipients that can be used in accordance with the disclosed subject matter:
As illustrated, in Table 1 the excipients provide for increased solubility for the cytostatic drug, zotarolimus, as compared to saline alone.

- Zotarolimus Solubility: 0.53 µg/mL
SMILES: CO[C@H]1C[C@@H]2CC[C@@H](C)[C@@](O)(O2)C(=O)C(=O)N2CCCC[C@H]2C(=O)O[C@H]([C@H](C)C[C@@H]2CC[C@H](n3cnnn3)[C@H](OC)C2)CC(=O)[C@H](C)/C=C(\C)[C@@H](O)[C@@H](OC)C(=O)[C@H](C)C[C@H](C)/C=C/C=C/C=C/1C [Zotarolimus, zotarolimus]
